For series [1] the following is noted: cited from earlier work.
The conditions of series [2]: pig, in vivo.
Series [3] is described as follows: Blood concentrations of doxycycline hyclate after deployment of drug delivery formulations in pigs (Example 1). To be noted: drug/vinylpolysiloxane pills (32% drug loading) deployed in three Yorkshire pigs. The series is classed as in vivo. The method, then: The model drug, doxycycline hyclate, is added to the Zhermack Elite Double 22 base and catalyst to obtain a final drug loading percentage of 32%. Each pill has around 30 mg of drug (FIG. 1B). Drug crystals less than 75 μm can be visualized on the surface of the pill using scanning electron microscope (FIG. 1C). A series of pills with 0.5 mm holes inside them can be strung on a retention frame such as nitinol superelastic wire and encased in a Tygon tubing with stainless steel beads and Nusil glue at the ends of the article (FIG. 1D). Other drugs such as moxifloxacin, isoniazid, pyrazinamide, and ethambutol can also be mixed with the Zhermack Elite Double 22 base and catalyst at drug loading percentages greater than 25 wt %. Stability of the drug form can be evaluated using proton nuclear magnetic resonance spectroscopy after extraction of the drug from the matrix in water.
The pills were created by first mixing the drug into the Zhermack Elite Double 22 base and catalyst. […] Drug loading percentages were determined relative to the finally cured silicone mixture weight. […]
After deployment of the drug delivery formulations in three Yorkshire pigs in a large animal model, concentrations of doxycycline hyclate in the blood were measured, and drug release is sustained for at least 7 days with non-zero values (FIG. 3B).

In the case of `CO[C@H]1/C=C/O[C@@]2(C)Oc3c(C)c(O)c4c(O)c(c(/C=N/N5CCN(C)CC5)c(O)c4c3C2=O)NC(=O)/C(C)=C\C=C\[C@H](C)[C@H](O)[C@@H](C)[C@@H](O)[C@@H](C)[C@H](OC(C)=O)[C@@H]1C` [rifampicin], the stability in acid result in series [1] is “rapidly degrades in acid”. For the same compound, the “duration of detectable serum concentrations” value in series [2] is listed as “a week”.
As for doxycycline hyclate, the “drug release sustained with non-zero concentrations in the blood” value in series [3] is listed as “at least 7 days”. Moreover, in series [2], the “duration drug was detectable in serum” value is “at least 28 days”, the “time after which no drug was detectable in serum” value was 3 days and the “time to detectable serum concentrations” value was no more than 15 min.

Values taken from US11576860B2, “Retrieval systems and related methods” (Massachusetts Institute of Technology, priority 2018, dated 2023).
